We go through one substance from patent US20210032633A1, “DRUG FOR CHRONIC INFLAMMATORY DISEASE AND METHOD FOR EVALUATING SUSCEPTIBILITY TO CHRONIC INFLAMMATORY DISEASE” (National University Corporation Hokkaido University, priority 2018, published 2021).

The test system of one series is NEDD4 SP3 mRNA. The series can be described thus: Knockdown efficiency: NEDD4 SP3 mRNA expression by qPCR in siRNA-transfected H4 cells. The format is cell-based, human. To be noted: under TNF-α stimulation, relative to GAPDH, remaining expression vs si-control. The method, then: (§1) siRNA (GCAAGACAAGAGAUGAUUUtt (SEQ ID No. 23), Ambion Silencer Select siRNA, Thermo Fisher Scientific) against NEDD4 SP3, and control siRNA (Ambion Silencer Select siRNA, Thermo Fisher Scientific) were transfected into a human glioma cell line (H4 cells) using Lipofectamine RNAiMAX (Thermo Fisher Scientific), and NEDD4 SP3 knockdown cells were constructed. After stimulating the control cells and the knockdown cells with IL-6 +TNFa, the IL-6 mRNA expression was measured by qPCR (primer sequence: […] (SEQ ID No. 24) and […] (SEQ ID No.25)). Moreover, the knockdown efficiency was confirmed using the NEDD4 SP3 expression as an index. The expression level indicates the relative amount with respect to the housekeeping gene GAPDH (primer sequence: […] (SEQ ID No.26) and CGCTCCTGGAAGATGGTG (SEQ ID No.27)).
Background: In qPCR the cycle at which signal appears reflects the starting amount.

For series [1], the system named is IL-6 mRNA expression in H4 cells. The series can be described thus: IL-6 mRNA expression by qPCR in H4 cells stimulated with IL-6 + TNFa (inflammation amplifier). To be noted: under IL-6 and TNF-α stimulation, relative to GAPDH, remaining expression vs si-control. Format: cell-based, human. The method, then: as §1

For “GCAAGACAAGAGAUGAUUUtt (SEQ ID No. 23) (GCAAGACAAGAGAUGAUUUTT; chemistry not given here) [NEDD4 si-SP3, siRNA against NEDD4 SP3, Ambion Silencer Select siRNA, Thermo Fisher Scientific]”, the “NEDD4 SP3 mRNA expression level compared to H4 cells introduced with si-control” value in the series on NEDD4 SP3 mRNA came to 4.2%. The “IL-6 mRNA expression level compared to H4 cells introduced with si-control” value in series [1] amounted to 41.0%.
